These results are taken from patent US20200261383A1, “PHARMACEUTICAL COMPOSITIONS” (KALVISTA PHARMACEUTICALS LIMITED, priority 2017, published 2020).

One data set concerns diabetic rats. As to conditions: cited from earlier work.
Data set [1] in a line: Ocular pharmacokinetic study in monkey, intravitreal injection on Day 1, 29 and 57. It counts as in vivo, cynomolgus monkeys. The settings on record: monkeys; IVT 5 μg/eye Day 1, 29, 57; calculated post third dose, sampling interval Day 57-99.
For data set [2] the following is noted: solution for injection; cited from earlier work.

For `N=C(N)c1ccc(CNC(=O)c2cnn(Cc3ccccc3)c2)cc1` [ASP-440], in the data set on diabetic rats, the “Retinal blood flow abnormalities” value is “ameliorated” and the Retinal vascular permeability entry is “ameliorated”.
As for `CCOc1ccc(C[C@@H](NC(=O)c2ccccc2)C(=O)N[C@@H](Cc2ccccc2)C(=O)NCc2ccc(CN)cc2)cc1.Cl` [Compound 1, N-[(R)-1-[(S)-1-(4-Aminomethyl-benzylcarbamoyl)-2-phenyl-ethylcarbamoyl]-2-(4-ethoxy-phenyl)-ethyl]-benzamide hydrochloride], in data set [1], the “AUC0-last in Ocular Tissue, Aqueous Humor” value was 1,410 ng · h/mL or ng · h/g; the “AUC0-last in Ocular Tissue, Choroid-Tissue” value was 32,200 ng · h/mL or ng · h/g; the “AUC0-last in Ocular Tissue, Retina- Tissue” value is 166,000 ng · h/mL or ng · h/g; the “AUC0-last in Ocular Tissue, Vitreous Humor” value is recorded as 1,110 ng · h/mL or ng · h/g.
For Ecallantide, the “Safety in medical use” value in data set [2] is “risk of anaphylactic reactions”.
